Experimental data reported in US4518711A, “Conformationally constrained cyclic enkephalin analogs with delta receptor specificity” (Gibson-Stephens Institute, priority 1983, dated 1985).
Where two headings read alike, the source gives them in different places. Where a SMILES comes first, the peptide text is derived from it. Bridges are numbered along the chain shown (N, C = ends). [ ]: non-standard residue; d: D form. dPen = CC(C)(S)[C@@H](N)C(=O)O

What was measured:
[1] = biological target: T1, delta type opiate receptors (mouse vas deferens preparation) (Mus musculus, UniProt P32300); test: Mouse vas deferens (MVD) assay, inhibition of electrically stimulated contractions; type: cell-based; settings: for IC50 (GPI)/IC50 (MVD): delta receptor selectivity, GPI versus MVD
T1 construct: The mouse vas deferens was prepared following the method of Hughes et al; from tissue; host or cells: mouse vas deferens
Experimental: These assays tested the degree of electrically stimulated contractions in the MVD and GPI tissues.
The mouse vas deferens was prepared following the method of Hughes et al. One pair of vasa deferentia was used in each experiment.

[2] = biological target: T2, mu receptors (rat brain membrane preparations) (Rattus norvegicus, UniProt P33535); test: Rat brain binding assay, displacement of [3H]naloxone
T2 construct: Whole brains with cerebellum removed were homogenized in 100 volumes of Tris-HCl buffer; from tissue; host or cells: rat whole brain (cerebellum removed) membrane homogenate

[3] = biological target: T3, delta receptors (rat brain membrane preparations) (Rattus norvegicus, UniProt P33533); test: Rat brain binding assay, displacement of [3H][D-Ala2, D-Leu5]enkephalin
T3 construct: Whole brains with cerebellum removed were homogenized in 100 volumes of Tris-HCl buffer; from tissue; host or cells: rat whole brain (cerebellum removed) membrane homogenate
T3 sequence (P33533 whole entry): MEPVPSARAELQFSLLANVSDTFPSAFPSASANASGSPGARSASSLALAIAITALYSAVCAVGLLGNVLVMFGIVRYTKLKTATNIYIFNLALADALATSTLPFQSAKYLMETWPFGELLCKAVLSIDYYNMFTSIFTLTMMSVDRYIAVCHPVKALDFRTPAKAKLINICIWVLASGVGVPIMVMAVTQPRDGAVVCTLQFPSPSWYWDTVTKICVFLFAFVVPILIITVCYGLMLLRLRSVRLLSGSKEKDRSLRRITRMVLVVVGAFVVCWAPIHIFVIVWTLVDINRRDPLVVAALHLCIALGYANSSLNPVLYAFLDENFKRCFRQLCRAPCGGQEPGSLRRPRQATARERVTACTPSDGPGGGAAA

T2 sequence (P33535 whole entry): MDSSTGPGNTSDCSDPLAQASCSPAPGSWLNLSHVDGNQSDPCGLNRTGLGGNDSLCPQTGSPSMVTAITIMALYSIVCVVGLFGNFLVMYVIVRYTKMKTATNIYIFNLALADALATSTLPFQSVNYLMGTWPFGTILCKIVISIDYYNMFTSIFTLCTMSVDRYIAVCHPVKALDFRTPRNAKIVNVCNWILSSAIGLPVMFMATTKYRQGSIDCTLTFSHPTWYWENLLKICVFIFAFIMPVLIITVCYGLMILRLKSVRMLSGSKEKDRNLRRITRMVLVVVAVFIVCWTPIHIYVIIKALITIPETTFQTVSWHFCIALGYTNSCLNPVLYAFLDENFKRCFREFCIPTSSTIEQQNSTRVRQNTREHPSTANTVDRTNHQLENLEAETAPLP
T1 sequence (P32300 whole entry): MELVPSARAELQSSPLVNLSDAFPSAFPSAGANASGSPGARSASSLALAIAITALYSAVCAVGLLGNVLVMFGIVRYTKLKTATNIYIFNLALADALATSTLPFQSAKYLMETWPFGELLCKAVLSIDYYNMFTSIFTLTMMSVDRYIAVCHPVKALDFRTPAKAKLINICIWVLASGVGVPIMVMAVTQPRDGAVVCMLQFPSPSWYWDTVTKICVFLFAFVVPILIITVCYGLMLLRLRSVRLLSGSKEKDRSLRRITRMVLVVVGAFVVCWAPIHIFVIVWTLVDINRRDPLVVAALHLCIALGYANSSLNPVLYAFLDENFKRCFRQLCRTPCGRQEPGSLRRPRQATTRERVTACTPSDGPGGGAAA

Compound | IC50 (GPI)/IC50 (MVD) [1] | IC50 ([1]; electrically stimulated contractions, mouse vas deferens, read-out: IC50 (nM) MVD) | IC50 [1] | IC50 [2] | IC50 [3] | IC50 (NAL)/IC50 (DADLE) ([3]; delta receptor selectivity in rat brain binding)
Oc1ccc2c3c1O[C@H]1[C@@H](O)C=C[C@H]4[C@@H](C2)NCC[C@@]341 [Normorphine] | 0.17 | 540 nM | – | – | – | –
C[C@@H](O)[C@H](NC(=O)[C@@H]1CSSC(C)(C)[C@@H](NC(=O)[C@@H](N)Cc2ccc(O)cc2)C(=O)NCC(=O)N[C@@H](Cc2ccccc2)C(=O)N1)C(=O)O (H-Y[dPen]GFCT-OH; disulfide 2-5) | 380 | – | 0.6 nM | 146 nM | 5.2 nM | 28.2
CSCC[C@H](NC(=O)[C@H](Cc1ccccc1)NC(=O)CNC(=O)[C@@H](C)NC(=O)[C@@H](N)Cc1ccc(O)cc1)C(N)=O [[D-Ala^2, Met^5]Enkephalinamide, [D-Ala^2, Met^5]Enkephalinamide] | – | – | 3.75 nM | – | – | –
CC(C)C[C@H](NC(=O)[C@H](Cc1ccccc1)NC(=O)CNC(=O)[C@@H](CO)NC(=O)[C@@H](N)Cc1ccc(O)cc1)C(=O)N[C@H](C(=O)O)[C@@H](C)O [[D-Ser^2, Leu^5, Thr^6]Enkephalin, [D-Ser^2, Leu^5, Thr^6]enkephalin] | – | – | – | 88 ± 6 nM | 5.73 nM | –
CC(C)C[C@H](NC(=O)[C@H](Cc1ccccc1)NC(=O)CNC(=O)[C@H](NC(=O)[C@@H](N)Cc1ccc(O)cc1)[C@H](C)O)C(=O)N[C@H](C(=O)O)[C@@H](C)O [[D-Thr^2, Leu^5, Thr^6]Enkephalin, [D-Thr^2, Leu^5, Thr^6]enkephalin] | – | – | – | 36.3 nM | 6.4 nM | –
